One data set has as its system AML-193 cells. Nature of the data set: Thymidine incorporation assay, proliferation of AML-193 cells. It counts as cell-based, human. Particulars: for Specific Activity: one unit = amount of growth factor for half-maximal thymidine incorporation, AML-193 cells. How it is done: The cells were split twice weekly and were seeded into fresh medium at a density of 300,000/ml.
These samples were then serially diluted by 3-fold through the additional 11 wells of the microtitre plate. […] Tritiated thymidine ([…]) was added to each well for an additional 6 hours of incubation and the samples were harvested with an automated sample harvester and counted by liquid scintillation. One unit of activity is defined as the amount of growth factor required to stimulate half-maximal thymidine incorporation.
A general note: Uptake of a labelled nucleoside into DNA is a usual measure of proliferation.

In data set [1] the test system is unfractionated human bone marrow. Put plainly: Human bone marrow colony formation (CFU-GEMM, CFU-GM, BFU-E). The class given is cell-based. Particulars: for Colonies (Mean ± S.D.) CFU-GM: agar.
Procedure: Non-adherent, low density, T cell deplated cultures of human bone marrow were plated in methylcellulose (BFU-E, CFU-GEMM, 40,000 cells per plate) or agar (CFU-GM; 40,000 cells per culture) as described by Lu et al., Blood 61:250 (1983). Methylcellulose cultures contained 1 unit per plate erythropoietin and accounts for the background of 48±2 BFU-E in the absence of cytokine. Cultures were incubated in a 5% O2, 5% CO2, 90% N2 atmosphere for 14 days and counted with an inverted microscope.
For data set [2], the target named is T1, receptors on KG-1 cells (GM-CSF/IL-3 receptors) (Homo sapiens, UniProt P26951+P32927).
T1 construct: endogenous in cells; host or cells: KG-1
T1 sequence (P26951 19-378): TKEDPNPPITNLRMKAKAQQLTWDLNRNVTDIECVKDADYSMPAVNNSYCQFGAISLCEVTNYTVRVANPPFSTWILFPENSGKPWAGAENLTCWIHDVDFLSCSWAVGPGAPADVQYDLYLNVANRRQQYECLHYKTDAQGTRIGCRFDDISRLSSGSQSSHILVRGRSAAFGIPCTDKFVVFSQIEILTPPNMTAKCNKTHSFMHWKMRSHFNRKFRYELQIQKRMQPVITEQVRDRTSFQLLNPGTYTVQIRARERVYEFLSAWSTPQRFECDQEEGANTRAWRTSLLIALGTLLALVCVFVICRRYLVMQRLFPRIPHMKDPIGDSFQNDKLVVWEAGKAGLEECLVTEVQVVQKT
T1 sequence (P32927 17-897): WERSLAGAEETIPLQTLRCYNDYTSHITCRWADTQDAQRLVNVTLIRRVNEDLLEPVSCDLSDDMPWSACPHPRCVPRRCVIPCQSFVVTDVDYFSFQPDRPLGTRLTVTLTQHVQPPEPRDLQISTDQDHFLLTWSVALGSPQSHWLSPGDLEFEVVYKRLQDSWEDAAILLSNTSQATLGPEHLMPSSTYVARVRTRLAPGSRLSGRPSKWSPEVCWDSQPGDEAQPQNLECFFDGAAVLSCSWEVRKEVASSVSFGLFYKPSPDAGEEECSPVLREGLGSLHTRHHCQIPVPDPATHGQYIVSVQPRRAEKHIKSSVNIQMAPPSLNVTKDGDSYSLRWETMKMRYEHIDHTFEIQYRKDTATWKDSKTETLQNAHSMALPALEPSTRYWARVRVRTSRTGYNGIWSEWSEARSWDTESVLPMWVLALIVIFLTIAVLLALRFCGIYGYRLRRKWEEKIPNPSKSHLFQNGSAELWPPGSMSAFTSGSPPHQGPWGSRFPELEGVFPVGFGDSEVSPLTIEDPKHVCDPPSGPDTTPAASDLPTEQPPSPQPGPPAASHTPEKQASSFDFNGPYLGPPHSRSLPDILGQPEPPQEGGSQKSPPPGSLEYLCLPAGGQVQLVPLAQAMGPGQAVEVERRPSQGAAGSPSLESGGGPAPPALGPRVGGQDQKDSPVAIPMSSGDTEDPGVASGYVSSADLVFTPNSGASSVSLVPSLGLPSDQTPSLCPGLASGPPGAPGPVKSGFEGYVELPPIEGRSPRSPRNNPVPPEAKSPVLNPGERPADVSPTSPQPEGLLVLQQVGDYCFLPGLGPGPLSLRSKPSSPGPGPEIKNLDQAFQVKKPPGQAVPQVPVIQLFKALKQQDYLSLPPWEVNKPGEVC
Nature of the data set: Inhibition of 125I-IL-3 binding to KG-1 cells. Particulars: for KI value on KG-1 cells relative to JM-1 cells: Table F data. How it is done:
(§1) Briefly, 2-10 μg of recombinant protein in 50 μl 0.2M sodium phosphate, pH 7.2, was combined with 50 μl enzymobead reagent, 2 mCi of sodium iodide in 20 μl of 0.05M sodium phosphate pH 7 and 10 μl of 2.5% β-D-glucose. After 10 min at 25° C., sodium azide (10 μl of 50 mM) and sodium metabisulfite (10 μl of 5 mg/ml) were added sequentially and incubation continued for 5 minutes at 25° C.
(§2) B. Binding Assays. Binding assays were performed using JM-1, KG-1, HL-60 and AML-193 cells.

For data set [3], the target named is T2, receptors on AML-193 cells (GM-CSF/IL-3 receptors) (Homo sapiens, UniProt P26951+P32927).
T2 construct: endogenous in cells; host or cells: AML-193
T2 sequence (P26951 19-378): T1 sequence (P26951 19-378)
T2 sequence (P32927 17-897): T1 sequence (P32927 17-897)
Put plainly: Inhibition of 125I-IL-3 binding to AML-193 cells. Particulars: normalized data, JM-1 as standard. As for the experimental part: as §1, §2

Setting [4] is: Table D, 312 pg/ml (GM-CSF + IL-3: 312 + 312), 14 days.
Setting [5] is: Table D, 625 pg/ml (GM-CSF + IL-3: 625 + 625), 14 days.
Where [6] appears, read: Table D, 625 pg/ml (GM-CSF + IL-3: 625 + 625), with erythropoietin, background 48 ± 2.
Where [7] appears, read: Table D, 1250 pg/ml (GM-CSF + IL-3: 1250 + 1250), 14 days.
The mark [8] stands for this setting: Table D, 1250 pg/ml (GM-CSF + IL-3: 1250 + 1250), with erythropoietin, background 48 ± 2.
Where [9] appears, read: Table D, 2500 pg/ml (GM-CSF + IL-3: 2500 + 2500), 14 days.
Setting [10] is: Table D, 2500 pg/ml (GM-CSF + IL-3: 2500 + 2500), with erythropoietin, background 48 ± 2.
The mark [11] stands for this setting: Table D, 5000 pg/ml (GM-CSF + IL-3: 5000 + 5000), 14 days.
Setting [12] is: Table D, 5000 pg/ml (GM-CSF + IL-3: 5000 + 5000), with erythropoietin, background 48 ± 2.
The mark [13] stands for this setting: Table D, 156 pg/ml (GM-CSF + IL-3: 156 ± 156 [sic]), 14 days.

Consider “GM-CSF: recombinant human granulocyte-macrophage colony-stimulating factor expressed in yeast, comparator”, for which the “Specific Activity” value with AML-193 cells is on record as 9.74 × 10^4 units/mg. In addition, the “Colonies (Mean ± S.D.) CFU-GEMM” value in data set [1] (setting [4]) was 0 colonies; in data set [1] (setting [5]) it was 0.3 ± 0.3 colonies; in data set [1] (setting [7]) it was 1.5 ± 0.3 colonies; in data set [1] (setting [9]), 3.5 ± 0.7 colonies; in data set [1] (setting [11]) it was 6.8 ± 0.6 colonies. In addition, the “Colonies (Mean ± S.D.) CFU-GM” value in data set [1] (setting [4]) is given as 16 ± 1 colonies; in data set [1] (setting [5]), 21 ± 2 colonies; in data set [1] (setting [7]), 33 ± 2 colonies; in data set [1] (setting [9]), 42 ± 2 colonies; in data set [1] (setting [11]), 42 ± 4 colonies. Further, the “Colonies (Mean ± S.D.) BFU-E” value in data set [1] (setting [6]) worked out at 46 ± 3 colonies; in data set [1] (setting [8]) it was 47 ± 4 colonies; in data set [1] (setting [10]) it was 61 ± 1 colonies; in data set [1] (setting [12]) it was 63 ± 3 colonies.
“huIL-3[Pro^8 Asp^15 Asp^70 ]/huGM-CSF[Leu^23 Asp^27 Glu^39 ] [IL-3/GM-CSF]”: the “KI value on KG-1 cells relative to JM-1 cells” value in data set [2] is 10-20 fold.
As to “huGM-CSF[Leu^23 Asp^27 Glu^39 ]/Gly4 SerGly5 Ser/huIL-3[Pro^8 Asp^15 Asp^70 ] [GM-CSF/IL-3]”, the “Specific activity relative to IL-3 or GM-CSF alone or GM-CSF plus IL-3 combined” value with AML-193 cells (AML-193 thymidine incorporation) is given as “approximately 10 fold”. Moreover, the “Specific Activity” value with AML-193 cells is 1.81 × 10^6 units/mg. Also, in data set [2], the “KI value on KG-1 cells relative to JM-1 cells” value was 10-20 fold. Further, the “Binding affinity to KG-1 cells relative to JM-1 cells” value in data set [2] (normalized data, JM-1 as standard) is reported as 41.0 fold. The “Binding affinity to AML-193 cells relative to JM-1 cells” value in data set [3] came out at 11.1 fold. Further, in data set [1] (FIG. 3A-3D), the “BFU-E, CFU-GM and CFU-GEMM colony formation relative to IL-3 or GM-CSF alone, or IL-3 and GM-CSF combined” value is listed as “enhances”. Also, the “Colonies (Mean ± S.D.) CFU-GEMM” value in data set [1] (Table D, 78 pg/ml, 14 days) was 0 colonies; in data set [1] (setting [13]), 1.0 ± 0.4 colonies; in data set [1] (setting [4]), 2.5 ± 0.7 colonies; in data set [1] (setting [5]), 4.3 ± 0.5 colonies; in data set [1] (setting [7]) it was 6.8 ± 0.5 colonies; in data set [1] (setting [9]), 10.3 ± 0.9 colonies. Besides, the “Colonies (Mean ± S.D.) CFU-GEMM” value in data set [1] (setting [11]) is given as 10.3 ± 1 colonies; in data set [1] (Table E, 78 pg/ml, media control 2 ± 0), 2.0 ± 0 colonies; in data set [1] (Table E, 156 pg/ml, media control 2 ± 0), 2.0 ± 1 colonies; in data set [1] (Table E, 312 pg/ml, media control 2 ± 0), 5.5 ± 0.5 colonies; in data set [1] (Table E, 625 pg/ml (GM-CSF + IL-3: 625 + 625), media control 2 ± 0), 6.0 ± 1 colonies; in data set [1] (Table E, 1250 pg/ml (GM-CSF + IL-3: 1250 + 1250), media control 2 ± 0) it was 9.0 ± 0 colonies. For the same substance, the “Colonies (Mean ± S.D.) CFU-GEMM” value in data set [1] (Table E, 2500 pg/ml (GM-CSF + IL-3: 2500 + 2500), media control 2 ± 0) worked out at 10.0 ± 1 colonies. Also, the “Colonies (Mean ± S.D.) CFU-GM” value in data set [1] (Table D, 78 pg/ml, 14 days) came to 16 ± 2 colonies; in data set [1] (setting [13]) it was 24 ± 3 colonies; in data set [1] (setting [4]) it was 35 ± 2 colonies; in data set [1] (setting [5]), 52 ± 6 colonies; in data set [1] (setting [7]), 59 ± 2 colonies; in data set [1] (setting [9]), 74 ± 1 colonies. The “Colonies (Mean ± S.D.) CFU-GM” value in data set [1] (setting [11]) stood at 97 ± 2 colonies; in data set [1] (Table E, 78 pg/ml), 2 ± 0.3 colonies; in data set [1] (Table E, 156 pg/ml (GM-CSF + IL-3: 156 + 156)), 5 ± 1 colonies; in data set [1] (Table E, 312 pg/ml (GM-CSF + IL-3: 312 + 312)), 8 ± 1 colonies; in data set [1] (Table E, 625 pg/ml (GM-CSF + IL-3: 625 + 625)) it was 15 ± 2 colonies; in data set [1] (Table E, 1250 pg/ml (GM-CSF + IL-3: 1250 + 1250)), 23 ± 2 colonies. The “Colonies (Mean ± S.D.) CFU-GM” value in data set [1] (Table E, 2500 pg/ml (GM-CSF + IL-3: 2500 + 2500)) is 45 ± 5 colonies; in data set [1] (Table E, 5000 pg/ml (GM-CSF + IL-3: 5000 + 5000)), 43 ± 5 colonies. Also, the “Colonies (Mean ± S.D.) BFU-E” value in data set [1] (Table D, 78 pg/ml, with erythropoietin, background 48 ± 2) is listed as 50 ± 3 colonies; in data set [1] (Table D, 156 pg/ml (GM-CSF + IL-3: 156 ± 156 [sic]), with erythropoietin, background 48 ± 2), 49 ± 6 colonies; in data set [1] (Table D, 312 pg/ml (GM-CSF + IL-3: 312 + 312), with erythropoietin, background 48 ± 2) it was 70 ± 4 colonies; in data set [1] (setting [6]), 83 ± 5 colonies; in data set [1] (setting [8]), 125 ± 8 colonies; in data set [1] (setting [10]), 119 ± 5 colonies. The “Colonies (Mean ± S.D.) BFU-E” value in data set [1] (setting [12]) stood at 107 ± 5 colonies; in data set [1] (Table E, 78 pg/ml, media control 44 ± 4), 44 ± 1 colonies; in data set [1] (Table E, 156 pg/ml, media control 44 ± 4) it was 47 ± 3 colonies; in data set [1] (Table E, 312 pg/ml, media control 44 ± 4), 71 ± 1 colonies; in data set [1] (Table E, 625 pg/ml (GM-CSF + IL-3: 625 + 625), media control 44 ± 4) it was 97 ± 2 colonies; in data set [1] (Table E, 1250 pg/ml (GM-CSF + IL-3: 1250 + 1250), media control 44 ± 4), 127 ± 7 colonies. For the same substance, the “Colonies (Mean ± S.D.) BFU-E” value in data set [1] (Table E, 2500 pg/ml (GM-CSF + IL-3: 2500 + 2500), media control 44 ± 4) was 125 ± 10 colonies. Also, in data set [1] (summary of Tables D and E), the “Potency in enhancing proliferation of unfractionated human bone marrow cells” value was “equivalent in potentcy to a mixture of GM-CSF and IL-3”.

These data come from US5073627A (Immunex Corporation, priority 1990, dated 1991).
